The source of these data is patent US8557816B2, “Aurora kinase modulators and method of use” (Amgen Inc., priority 2007, dated 2013).

Assay [1] has as its target T1, AuroraB (Homo sapiens, UniProt Q96GD4).
T1 construct: 20 μL of AuroraB FL H is for a final volume of 41 μL; His
Kind of assay: AuroraB Homogeneous Time Resolved Fluorescent (HTRF) kinase assay. Format: biochemical. To be noted: average; read-out: AurB_IC50_IP (uM Avg). In short, it runs like this:
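Read-out is time-resolved FRET between europium anti-phospho-H3 antibody and streptavidin-APC, added in EDTA buffer to stop the reaction and equilibrated about 60 min (ex 320, em 615 and 655 nm). Preceding reaction: ~90 min, full-length enzyme, ATP, 0.1 μM biotin-Histone H3 substrate, Mg/Mn HEPES buffer pH 7.5.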
(In general: In TR-FRET formats the signal depends on donor and acceptor labels being close together.)

In assay [2] the target is T2, AuroraA-TPX2 (Homo sapiens, UniProt O14965).
T2 construct: 20 μL of AuroraA-TPX2 KD GST for a final volume of about 41 μL; GST
T2 sequence (O14965 133-383 limits assumed): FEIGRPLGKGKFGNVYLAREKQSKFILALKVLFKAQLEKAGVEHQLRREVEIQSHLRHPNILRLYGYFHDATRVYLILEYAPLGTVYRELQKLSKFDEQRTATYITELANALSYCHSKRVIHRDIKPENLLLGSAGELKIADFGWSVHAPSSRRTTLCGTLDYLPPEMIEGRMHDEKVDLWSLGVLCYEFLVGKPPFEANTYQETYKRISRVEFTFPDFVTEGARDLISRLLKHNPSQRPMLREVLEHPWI
T2 sequence (Q9ULW0 1-43 partner limits assumed): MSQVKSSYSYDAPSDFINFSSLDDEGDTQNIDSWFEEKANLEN
In words: AuroraA-TPX2 Homogeneous Time Resolved Fluorescent (HTRF) kinase assay. The settings on record: average; read-out: AurA_IC50_IP (uM Avg). Format: biochemical. In outline: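 HTRF read-out (Eu 615 nm to APC 655 nm) of phosphorylated biotin-PLK, detected with 0.02 nM europium anti-phosphoPLK antibody and 0.0005 mg/mL SA-APC after overnight equilibration.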

T1 sequence (Q96GD4 whole entry): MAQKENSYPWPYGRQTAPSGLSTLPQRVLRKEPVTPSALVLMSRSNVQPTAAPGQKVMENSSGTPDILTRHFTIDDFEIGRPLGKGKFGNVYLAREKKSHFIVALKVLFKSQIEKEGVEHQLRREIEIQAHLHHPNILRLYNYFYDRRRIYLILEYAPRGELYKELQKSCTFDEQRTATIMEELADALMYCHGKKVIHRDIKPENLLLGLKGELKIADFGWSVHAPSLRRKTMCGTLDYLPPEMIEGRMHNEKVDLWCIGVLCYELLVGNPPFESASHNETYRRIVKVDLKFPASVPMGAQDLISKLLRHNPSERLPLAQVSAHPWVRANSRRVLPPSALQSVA

In the case of `COc1cccc(-c2nnc(Nc3ccc(Oc4ccnc5ccccc45)c(F)c3)c3ccccc23)n1` [compound 186, N-(3-fluoro-4-(4-quinolinyloxy)phenyl)-4-(6-(methyloxy)-2-pyridinyl)-1-phthalazinamine], the IC50 in assay [1] is 0.002 µM; in assay [2] it was 0.059 µM.

In the case of `COc1cnc2c(Oc3ccc(Nc4nnc(-c5ccc(C)cc5)c5ccccc45)cc3F)ccnc2c1` [compound 187, N-(3-fluoro-4-((7-(methyloxy)-1,5-naphthyridin-4-yl)oxy)phenyl)-4-(4-methylphenyl)-1-phthalazinamine], the IC50 is 0.004 µM in assay [1] and 0.006 µM in assay [2].

Turning to `COc1cnc2c(Oc3ccc(Nc4nnc(-c5cc(C)cc(C)c5)c5ccccc45)cc3)ccnc2c1` [compound 188, 4-(3,5-dimethylphenyl)-N-(4-((7-(methyloxy)-1,5-naphthyridin-4-yl)oxy)phenyl)-1-phthalazinamine], the IC50 was 0.006 µM in assay [1] and 0.017 µM in assay [2].

For `COc1cnc2c(Oc3ccc(Nc4nnc(-c5ncc(C)s5)c5ccccc45)cc3)ccnc2c1` [compound 189, N-(4-((7-(methyloxy)-1,5-naphthyridin-4-yl)oxy)phenyl)-4-(5-methyl-1,3-thiazol-2-yl)-1-phthalazinamine], the values for the IC50 in assay [1] and in assay [2] were 0.009 µM and 0.022 µM, respectively.

Turning to `COc1cnc2c(Oc3ccc(Nc4nnc(-c5ccc(F)nc5)c5ccccc45)cc3)ccnc2c1` [compound 190, 4-(6-fluoro-3-pyridinyl)-N-(4-((7-(methyloxy)-1,5-naphthyridin-4-yl)oxy)phenyl)-1-phthalazinamine], the IC50 in assay [1] turned out to be 0.005 µM; in assay [2], 0.052 µM.

With `COc1cnc2c(Oc3ccc(Nc4nnc(-c5cccnc5F)c5ccccc45)cc3)ccnc2c1` [compound 191, 4-(2-fluoro-3-pyridinyl)-N-(4-((7-(methyloxy)-1,5-naphthyridin-4-yl)oxy)phenyl)-1-phthalazinamine], the figures for the IC50 in assay [1] and in assay [2] were 0.009 µM and 0.104 µM, respectively.

Regarding `COc1cnc2c(Oc3ccc(Nc4nnc(-c5ccc(F)c(Cl)c5)c5ccccc45)cc3)ccnc2c1` [compound 193, 4-(3-chloro-4-fluorophenyl)-N-(4-((7-(methyloxy)-1,5-naphthyridin-4-yl)oxy)phenyl)-1-phthalazinamine], the IC50 worked out at 0.005 µM in assay [1] and 0.023 µM in assay [2].

With `COc1cnc2c(Oc3ccc(Nc4nnc(-c5ccc(N(C)C)cc5)c5ccccc45)cc3)ccnc2c1` [compound 194, 4-(4-(dimethylamino)phenyl)-N-(4-((7-(methyloxy)-1,5-naphthyridin-4-yl)oxy)phenyl)-1-phthalazinamine], the IC50 in assay [1] was 0.01 µM; in assay [2], 0.023 µM.

As for `COc1cnc2c(Oc3ccc(Nc4nnc(-c5ccc6sc(C)nc6c5)c5ccccc45)cc3)ccnc2c1` [compound 195, 4-(2-methyl-1,3-benzothiazol-5-yl)-N-(4-((7-(methyloxy)-1,5-naphthyridin-4-yl)oxy)phenyl)-1-phthalazinamine], the IC50 in assay [1] came to 0.005 µM; in assay [2] it was 0.088 µM.

With `CCCc1cc(-c2ccccc2)nnc1Nc1ccc(Oc2ccnc3cc(C#N)ccc23)cc1` [compound 196, 4-((4-((6-phenyl-4-propyl-3-pyridazinyl)amino)phenyl)oxy)-7-quinolinecarbonitrile], the figures for the IC50 in assay [1] and in assay [2] were 0.006 µM and 0.672 µM, respectively.

Regarding `COc1cnc2c(Oc3ccc(Nc4nnc(-c5ccc(N6CCCCC6)cc5)c5ccccc45)cc3)ccnc2c1` [compound 198, N-(4-((7-(methyloxy)-1,5-naphthyridin-4-yl)oxy)phenyl)-4-(4-(1-piperidinyl)phenyl)-1-phthalazinamine], the IC50 amounted to 0.004 µM in assay [1] and 0.128 µM in assay [2].

Regarding `CCc1cc(-c2ccc(C)cc2)nnc1Nc1ccc(Oc2ccnc3cc(OC)cnc23)cc1` [compound 199, 4-ethyl-N-(4-((7-(methyloxy)-1,5-naphthyridin-4-yl)oxy)phenyl)-6-(4-methylphenyl)-3-pyridazinamine], the IC50 in assay [1] amounted to 0.002 µM; in assay [2], 0.027 µM.

On to `COc1cnc2c(Oc3ccc(Nc4nnc(-c5ncco5)c5ccccc45)cc3)ccnc2c1` [compound 200, N-(4-((7-(methyloxy)-1,5-naphthyridin-4-yl)oxy)phenyl)-4-(1,3-oxazol-2-yl)-1-phthalazinamine], for which the IC50 is 0.003 µM in assay [1] and 0.087 µM in assay [2].

As to `COc1cnc2c(Oc3ccc(Nc4nnc(-c5ccc(Cl)c(Cl)c5)c5ccccc45)cc3)ccnc2c1` [compound 201, 4-(3,4-dichlorophenyl)-N-(4-((7-(methyloxy)-1,5-naphthyridin-4-yl)oxy)phenyl)-1-phthalazinamine], the IC50 was 0.006 µM in assay [1] and 0.035 µM in assay [2].

Regarding `Cn1cncc1-c1cc2nccc(Oc3ccc(Nc4nnc(-c5ccccc5)c5ccccc45)cc3)c2s1` [compound 202, N-(4-((2-(1-methyl-1H-imidazol-5-yl)thieno[3,2-b]pyridin-7-yl)oxy)phenyl)-4-phenyl-1-phthalazinamine], the IC50 in assay [1] is 0.002 µM; in assay [2], 0.02 µM.

For the compound `Cc1ccc(-c2nnc(Nc3ccc(Oc4ccnc5cc(-c6cncn6C)sc45)cc3)c3ccccc23)cc1` [compound 203, N-(4-((2-(1-methyl-1H-imidazol-5-yl)thieno[3,2-b]pyridin-7-yl)oxy)phenyl)-4-(4-methylphenyl)-1-phthalazinamine], the figures for the IC50 in assay [1] and in assay [2] were 0.002 µM and 0.008 µM, respectively.

Consider `COc1cnc2c(Oc3ccc(Nc4nnc(-c5ccc6c(ccn6C)c5)c5ccccc45)cc3)ccnc2c1` [compound 204, 4-(1-methyl-1H-indol-5-yl)-N-(4-((7-(methyloxy)-1,5-naphthyridin-4-yl)oxy)phenyl)-1-phthalazinamine], for which the IC50 in assay [1] turned out to be 0.003 µM; in assay [2], 0.026 µM.

`CCc1cc(-c2ccc(C)s2)nnc1Nc1ccc(Oc2ccnc3cc(OC)cnc23)cc1` [compound 205, 4-ethyl-N-(4-((7-(methyloxy)-1,5-naphthyridin-4-yl)oxy)phenyl)-6-(5-methyl-2-thienyl)-3-pyridazinamine]: the IC50 is 0.004 µM in assay [1] and 0.06 µM in assay [2].

Regarding `COc1cnc2c(Oc3ccc(Nc4nnc(-c5ccc6cc[nH]c6c5)c5ccccc45)cc3)ccnc2c1` [compound 206, 4-(1H-indol-6-yl)-N-(4-(7-methoxy-1,5-naphthyridin-4-yloxy)phenyl)phthalazin-1-amine], the IC50 in assay [1] was determined as 0.003 µM; in assay [2], 0.017 µM.

With `N#Cc1ccc2c(Sc3ccc(Nc4nnc(-c5ccccc5)c5ccccc45)cc3)ccnc2c1` [compound 208, 4-((4-((4-phenyl-1-phthalazinyl)amino)phenyl)thio)-7-quinolinecarbonitrile], the IC50 in assay [1] was 0.007 µM; in assay [2], 0.18 µM.

As to `COc1cnc2c(Oc3ccc(Nc4nnc(-c5ccc(C)c(N)c5)c5ccccc45)cc3)ccnc2c1` [compound 209, 4-(3-amino-4-methylphenyl)-N-(4-((7-(methyloxy)-1,5-naphthyridin-4-yl)oxy)phenyl)-1-phthalazinamine], the IC50 in assay [1] was found to be 0.001 µM; in assay [2], 0.012 µM.

In the case of `CCc1cc(-c2cc(C)cs2)nnc1Nc1ccc(Oc2ccnc3cc(OC)cnc23)cc1` [compound 210, 4-ethyl-N-(4-((7-(methyloxy)-1,5-naphthyridin-4-yl)oxy)phenyl)-6-(4-methyl-2-thienyl)-3-pyridazinamine], the IC50 in assay [1] came to 0.002 µM; in assay [2], 0.031 µM.

As to `COc1cc2nccc(Oc3ccc(Nc4nnc(-c5ccc(C)cc5)c5ccccc45)cc3)c2cc1C(N)=O` [compound 211, 7-(methyloxy)-4-((4-((4-(4-methylphenyl)-1-phthalazinyl)amino)phenyl)oxy)-6-quinolinecarboxamide], the results for the IC50 in assay [1] and in assay [2] were 0.001 µM and 0.006 µM, respectively.

In the case of `COc1cnc2c(Oc3ccc(Nc4nnc(-c5cn[nH]c5)c5ccccc45)cc3)ccnc2c1` [compound 212, N-(4-((7-(methyloxy)-1,5-naphthyridin-4-yl)oxy)phenyl)-4-(1H-pyrazol-4-yl)-1-phthalazinamine], the results for the IC50 in assay [1] and in assay [2] were 0.018 µM and 0.478 µM, respectively.

Take `COc1cnc2c(Oc3ccc(Nc4nnc(-c5ccc(OC)c(C)c5)c5ccccc45)cc3)ccnc2c1` [compound 213, 4-(3-methyl-4-(methyloxy)phenyl)-N-(4-((7-(methyloxy)-1,5-naphthyridin-4-yl)oxy)phenyl)-1-phthalazinamine]: the results for the IC50 in assay [1] and in assay [2] were 0.011 µM and 0.079 µM, respectively.

`COc1cnc2c(Oc3ccc(Nc4nnc(-c5ccc(F)c(F)c5)c5ccccc45)cc3)ccnc2c1` [compound 214, 4-(3,4-difluorophenyl)-N-(4-((7-(methyloxy)-1,5-naphthyridin-4-yl)oxy)phenyl)-1-phthalazinamine]: the IC50 in assay [1] came out at 0.007 µM; in assay [2], 0.085 µM.

For the compound `COc1cnc2c(Oc3ccc(Nc4nnc(-c5cncnc5)c5ccccc45)cc3)ccnc2c1` [compound 215, N-(4-((7-(methyloxy)-1,5-naphthyridin-4-yl)oxy)phenyl)-4-(5-pyrimidinyl)-1-phthalazinamine], the IC50 in assay [1] turned out to be 0.024 µM; in assay [2], 0.743 µM.
